Key:
[1] = system: P. falciparum Dd2 (multidrug resistant)
Experimental: (§1) All in vitro studies were 72 hour growth inhibition assays, starting with 0.2% parasitemia, 2% hematocrit under standard culture conditions in 96 well microplates. Growth was quantified using the fluorescence-based assay developed in our lab (Smilkstein et al; Antimicrobial Agents and Chemotherapy 2004;48:1803-1806). EC50 determined by non-linear regression curve fitting (sigmoidal dose-response, variable slope equation) using GraphPad Prism software. Isobolograms and EC50,75 and 90 estimates computed using CalcuSyn software (Biosoft, T. C. Chou).
(§2) 2. […] In the following figures, fixed-ratio combinations of 2 drugs are made at the concentrations of each described in the figure legend (Fivelman, Adagu and Warhurst. Antimicrobial Agents and Chemotherapy 2004;48:4097-4102). Then, in quadruplicate, each of these combinations is diluted serially 2-fold, yielding one curve for each starting mixture. The data are expressed using the concentration of the antimalarial of interest on the X axis. […] In each starting combination, an increase of one drug is accompanied by a corresponding decrease in the other. As a result, overlapping curves indicate an additive relationship; a shift to the left, synergy; and a shift to the right, antagonism. • b. One representative isobologram from each of the experiments is included to the right of the figure, showing lines predictive of EC50,75 and 90 if the combinations were additive in effect. Points falling to the lower left of the predictive lines indicate synergy; those on or near the line, additive effects.

[2] = system: P. falciparum W2 (chloroquine-resistant); assay: 72 hour growth inhibition assay, fluorescence-based, strain W2; format: cell-based; conditions: fixed-ratio combinations, isobologram
Experimental: as §1
as §2, with “One representative isobologram from each of the experiments is included to the right of the figure, showing lines predictive of EC50,75 and 90 if the combinations were additive in effect. Points falling to the lower left of the predictive lines indicate synergy; those on or near the line, additive effects.” left out

[3] = system: P. falciparum D6 (CQ sensitive, mefloquine resistant); assay: 72 hour growth inhibition assay, fluorescence-based, strain D6; format: cell-based
Experimental: as §1
as §2, with “One representative isobologram from each of the experiments is included to the right of the figure, showing lines predictive of EC50,75 and 90 if the combinations were additive in effect. Points falling to the lower left of the predictive lines indicate synergy; those on or near the line, additive effects.” left out

[4] = system: drug-resistant P. falciparum; assay: in vitro chemosensitization/resistance-reversal (C/RR) potency, strain not stated; format: cell-based
Experimental: as §1

CQ-resistant P. chabaudi = conditions: mice, drug alone
[5] = human, in vivo; cited from earlier work
[6] = system: drug-resistant P. falciparum; conditions: imipramine vs desipramine; amitriptyline vs nortriptyline; cited from earlier work
[7] = human, in vivo; cited from earlier work; remark: listed apart in the source

Structure (SMILES): Cc1ccccc1C(OCCN(C)C)c1ccccc1 (racemic) [orphenadrine]
- interaction with mefloquine ([1]; Dd2, resistant to mefloquine): synergistic
- interaction with quinine ([1]; Dd2, resistant to quinine): synergistic
- interaction with CQ ([1]; Dd2, fixed-ratio combinations, isobologram): synergistic
- interaction with CQ [2]: synergistic
- interaction with mefloquine ([3]; D6, resistant to mefloquine): synergistic
- interaction with CQ ([3]; D6, fixed-ratio combinations, isobologram): not against CQ sensitive D6
- effect on sensitivity to quinine or mefloquine ([4]; strains resistant to those drugs): increases sensitivity to quinine or mefloquine
- parasitemia at completion of 4 treatment days (CQ-resistant P. chabaudi): decreased parasitemia
- sedation as side effect [5]: does not typically cause sedation

Structure (SMILES): CN(C)CCCN1c2ccccc2CCc2ccccc21 [imipramine]
- resistance-reversal potency, dimethylamine vs monomethylamine pair [6]: no substantial difference

Structure (SMILES): CNCCCN1c2ccccc2CCc2ccccc21 [desipramine]
- resistance-reversal potency, dimethylamine vs monomethylamine pair [6]: no substantial difference
- typical serum concentrations in clinical use [7]: 100 to 500 nM

Structure (SMILES): CNCCC=C1c2ccccc2CCc2ccccc21 [nortriptyline]
- resistance-reversal potency, dimethylamine vs monomethylamine pair [6]: no substantial difference

Structure (SMILES): CN(C)CCC(c1ccc(Br)cc1)c1ccccn1 (stereo not drawn) [BP, brompheniramine]
- C/RR potency of the (+/−) and (+) forms compared ([4]; in vitro): equipotent

Structure (SMILES): CN(C)CCC(c1ccc(Cl)cc1)c1ccccn1 (racemic) [chlorpheniramine]
- C/RR potency of the (+/−) and (+) forms compared ([4]; in vitro): equipotent
- typical serum concentrations in clinical use [7]: < 100 nM
- sedation as side effect [5]: consistently causes drowsiness

Structure (SMILES): CN(C)CCC(c1ccc(Cl)cc1)c1ccccn1 (single isomer, unassigned; (-)) [(−)CP]
- C/RR activity ([4]; in vitro): active

Structure (SMILES): CN(C)CCC(c1ccccc1)c1ccccn1 (stereo not drawn) [pheniramine]
- concentrations achieved in clinical use relative to BP or CP [7]: roughly 20 fold
- sedation as side effect [5]: shares sedation as a side effect

Structure (SMILES): CN(C)CCC=C1c2ccccc2CCc2ccccc21 [amitriptyline]
- resistance-reversal potency, dimethylamine vs monomethylamine pair [6]: no substantial difference

Reference: patent US20080108655A1, “Drug composition and method for treating malaria and malignancy” (priority 2005, published 2008)
